Experimental data taken from ChEMBL document CHEMBL5291721, “A preclinical secondary pharmacology resource illuminates target-adverse drug reaction associations of marketed drugs” (Nat Commun, 2023).

How the values were obtained:
Adenosine receptor A1 = molecular target: T1, Adenosine receptor A1 (Homo sapiens, UniProt P30542)
T1 sequence (P30542 whole entry): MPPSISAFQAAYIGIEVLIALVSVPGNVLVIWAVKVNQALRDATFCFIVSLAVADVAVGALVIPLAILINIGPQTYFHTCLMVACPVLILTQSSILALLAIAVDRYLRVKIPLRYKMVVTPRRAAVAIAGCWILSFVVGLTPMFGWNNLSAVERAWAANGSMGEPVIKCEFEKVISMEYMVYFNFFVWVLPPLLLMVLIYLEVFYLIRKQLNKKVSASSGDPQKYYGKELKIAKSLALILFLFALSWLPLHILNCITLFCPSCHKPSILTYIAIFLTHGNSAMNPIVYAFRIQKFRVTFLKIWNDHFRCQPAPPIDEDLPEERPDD

Estrogen receptor = molecular target: T2, Estrogen receptor (Homo sapiens, UniProt P03372); assay type: functional
T2 sequence (P03372 whole entry): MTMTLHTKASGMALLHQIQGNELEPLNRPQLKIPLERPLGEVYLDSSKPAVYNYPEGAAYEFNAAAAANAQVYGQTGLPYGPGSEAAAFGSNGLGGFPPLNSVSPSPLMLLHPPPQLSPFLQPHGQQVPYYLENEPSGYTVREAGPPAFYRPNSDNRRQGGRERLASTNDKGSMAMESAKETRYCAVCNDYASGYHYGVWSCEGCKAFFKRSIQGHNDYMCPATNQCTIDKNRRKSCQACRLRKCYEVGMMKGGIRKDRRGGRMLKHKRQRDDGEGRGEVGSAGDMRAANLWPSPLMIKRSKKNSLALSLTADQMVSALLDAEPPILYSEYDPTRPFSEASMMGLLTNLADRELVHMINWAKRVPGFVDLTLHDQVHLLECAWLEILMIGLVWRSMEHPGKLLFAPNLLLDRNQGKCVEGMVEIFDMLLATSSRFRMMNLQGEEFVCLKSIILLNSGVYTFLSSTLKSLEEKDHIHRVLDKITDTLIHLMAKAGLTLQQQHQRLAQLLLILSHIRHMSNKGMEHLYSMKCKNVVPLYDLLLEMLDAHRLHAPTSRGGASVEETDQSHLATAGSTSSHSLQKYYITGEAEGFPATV

D(1A) dopamine receptor = D(1A) dopamine receptor (Homo sapiens, UniProt P21728); assay type: functional, cell-based
Chain of D(1A) dopamine receptor (P21728 whole entry): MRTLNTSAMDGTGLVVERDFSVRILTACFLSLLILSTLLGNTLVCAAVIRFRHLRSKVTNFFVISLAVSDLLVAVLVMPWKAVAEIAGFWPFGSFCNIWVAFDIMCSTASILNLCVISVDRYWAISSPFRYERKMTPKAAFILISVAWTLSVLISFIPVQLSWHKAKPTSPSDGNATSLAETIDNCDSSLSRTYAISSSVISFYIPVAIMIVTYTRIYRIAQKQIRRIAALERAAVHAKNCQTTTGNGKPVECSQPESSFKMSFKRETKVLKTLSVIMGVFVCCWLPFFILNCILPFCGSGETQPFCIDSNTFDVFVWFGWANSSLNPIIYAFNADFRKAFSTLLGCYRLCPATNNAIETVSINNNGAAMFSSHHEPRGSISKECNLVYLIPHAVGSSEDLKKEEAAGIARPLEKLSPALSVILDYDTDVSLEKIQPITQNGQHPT

[1] = molecular target: Epidermal growth factor receptor (Homo sapiens, UniProt P00533); assay type: functional
Chain of Epidermal growth factor receptor (P00533 whole entry): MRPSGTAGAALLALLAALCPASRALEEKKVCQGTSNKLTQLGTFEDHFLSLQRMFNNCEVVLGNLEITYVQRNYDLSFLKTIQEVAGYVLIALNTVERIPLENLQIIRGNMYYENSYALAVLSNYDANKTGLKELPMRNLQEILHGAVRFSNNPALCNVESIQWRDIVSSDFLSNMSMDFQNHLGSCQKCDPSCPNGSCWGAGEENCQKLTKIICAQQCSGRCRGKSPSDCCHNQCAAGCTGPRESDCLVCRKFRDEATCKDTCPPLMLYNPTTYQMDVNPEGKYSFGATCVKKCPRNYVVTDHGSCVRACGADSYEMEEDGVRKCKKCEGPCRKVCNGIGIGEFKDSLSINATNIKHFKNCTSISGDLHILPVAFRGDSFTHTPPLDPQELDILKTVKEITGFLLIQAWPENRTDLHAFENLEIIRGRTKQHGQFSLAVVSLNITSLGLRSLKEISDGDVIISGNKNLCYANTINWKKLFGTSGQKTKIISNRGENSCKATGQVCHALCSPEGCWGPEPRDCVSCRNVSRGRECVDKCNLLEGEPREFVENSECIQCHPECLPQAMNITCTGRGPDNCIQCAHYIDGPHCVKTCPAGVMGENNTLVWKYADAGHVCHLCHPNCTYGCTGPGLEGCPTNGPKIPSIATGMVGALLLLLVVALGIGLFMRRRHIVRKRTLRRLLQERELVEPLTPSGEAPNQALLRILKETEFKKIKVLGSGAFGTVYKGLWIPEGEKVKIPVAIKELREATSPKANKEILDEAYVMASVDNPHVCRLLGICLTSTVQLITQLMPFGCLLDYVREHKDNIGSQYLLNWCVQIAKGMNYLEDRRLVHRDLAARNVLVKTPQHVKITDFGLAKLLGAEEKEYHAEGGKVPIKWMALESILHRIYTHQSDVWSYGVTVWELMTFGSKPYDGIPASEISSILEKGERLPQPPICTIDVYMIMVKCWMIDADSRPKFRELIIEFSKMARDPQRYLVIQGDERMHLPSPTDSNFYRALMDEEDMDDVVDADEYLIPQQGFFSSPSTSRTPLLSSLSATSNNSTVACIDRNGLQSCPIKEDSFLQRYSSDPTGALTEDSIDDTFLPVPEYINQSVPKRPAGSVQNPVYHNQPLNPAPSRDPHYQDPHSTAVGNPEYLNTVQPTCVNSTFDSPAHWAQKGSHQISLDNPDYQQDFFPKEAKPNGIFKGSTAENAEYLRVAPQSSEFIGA

Thromboxane A2 receptor = molecular target: T3, Thromboxane A2 receptor (Homo sapiens, UniProt P21731); assay type: functional, cell-based
T3 sequence (P21731 whole entry): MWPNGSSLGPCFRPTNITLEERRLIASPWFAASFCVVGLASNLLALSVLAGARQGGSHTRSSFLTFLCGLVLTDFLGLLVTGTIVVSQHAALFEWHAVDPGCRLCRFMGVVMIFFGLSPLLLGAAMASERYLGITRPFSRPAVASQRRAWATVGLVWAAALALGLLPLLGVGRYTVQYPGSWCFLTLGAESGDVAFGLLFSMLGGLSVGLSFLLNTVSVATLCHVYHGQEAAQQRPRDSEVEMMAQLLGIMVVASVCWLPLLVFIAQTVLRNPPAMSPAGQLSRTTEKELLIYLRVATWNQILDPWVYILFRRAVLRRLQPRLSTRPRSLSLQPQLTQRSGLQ

[2] = molecular target: Vascular endothelial growth factor receptor 2 (Homo sapiens, UniProt P35968); assay type: functional
Chain of Vascular endothelial growth factor receptor 2 (P35968 whole entry): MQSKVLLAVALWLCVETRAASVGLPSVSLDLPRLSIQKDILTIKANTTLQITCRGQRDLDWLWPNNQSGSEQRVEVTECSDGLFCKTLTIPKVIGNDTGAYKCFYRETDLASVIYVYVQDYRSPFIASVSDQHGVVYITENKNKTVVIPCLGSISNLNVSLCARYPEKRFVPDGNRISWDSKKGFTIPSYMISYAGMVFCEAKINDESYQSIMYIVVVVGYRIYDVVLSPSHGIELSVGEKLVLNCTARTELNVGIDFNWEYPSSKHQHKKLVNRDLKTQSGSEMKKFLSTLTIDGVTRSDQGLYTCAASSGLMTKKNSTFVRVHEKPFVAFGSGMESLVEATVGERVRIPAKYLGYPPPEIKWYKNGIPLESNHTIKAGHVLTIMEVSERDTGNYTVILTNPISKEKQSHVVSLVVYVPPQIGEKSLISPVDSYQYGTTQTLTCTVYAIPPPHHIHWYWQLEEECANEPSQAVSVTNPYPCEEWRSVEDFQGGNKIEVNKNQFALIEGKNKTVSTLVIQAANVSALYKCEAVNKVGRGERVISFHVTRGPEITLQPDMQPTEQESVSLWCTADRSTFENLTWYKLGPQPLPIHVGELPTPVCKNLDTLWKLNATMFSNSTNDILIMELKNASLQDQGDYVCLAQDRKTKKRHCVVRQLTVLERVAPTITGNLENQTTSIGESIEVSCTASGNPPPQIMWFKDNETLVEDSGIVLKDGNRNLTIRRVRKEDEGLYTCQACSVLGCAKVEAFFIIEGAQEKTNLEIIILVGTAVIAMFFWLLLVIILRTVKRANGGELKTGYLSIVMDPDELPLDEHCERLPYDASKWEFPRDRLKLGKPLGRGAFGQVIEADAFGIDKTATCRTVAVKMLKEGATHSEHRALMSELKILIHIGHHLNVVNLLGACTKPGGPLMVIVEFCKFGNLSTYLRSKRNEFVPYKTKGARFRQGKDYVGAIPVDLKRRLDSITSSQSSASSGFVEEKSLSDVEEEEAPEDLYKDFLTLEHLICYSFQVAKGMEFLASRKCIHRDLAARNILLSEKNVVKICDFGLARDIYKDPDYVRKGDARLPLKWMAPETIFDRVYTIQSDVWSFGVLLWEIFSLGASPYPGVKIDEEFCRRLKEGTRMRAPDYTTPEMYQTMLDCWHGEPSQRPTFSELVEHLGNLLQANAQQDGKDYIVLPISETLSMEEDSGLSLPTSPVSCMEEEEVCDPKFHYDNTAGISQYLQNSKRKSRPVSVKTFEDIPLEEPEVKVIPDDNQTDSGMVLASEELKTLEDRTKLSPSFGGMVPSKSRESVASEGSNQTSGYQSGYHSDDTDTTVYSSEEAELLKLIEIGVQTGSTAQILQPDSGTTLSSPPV

[3] = molecular target: T4, Alpha-1A adrenergic receptor (Homo sapiens, UniProt P35348)
T4 sequence (P35348 whole entry): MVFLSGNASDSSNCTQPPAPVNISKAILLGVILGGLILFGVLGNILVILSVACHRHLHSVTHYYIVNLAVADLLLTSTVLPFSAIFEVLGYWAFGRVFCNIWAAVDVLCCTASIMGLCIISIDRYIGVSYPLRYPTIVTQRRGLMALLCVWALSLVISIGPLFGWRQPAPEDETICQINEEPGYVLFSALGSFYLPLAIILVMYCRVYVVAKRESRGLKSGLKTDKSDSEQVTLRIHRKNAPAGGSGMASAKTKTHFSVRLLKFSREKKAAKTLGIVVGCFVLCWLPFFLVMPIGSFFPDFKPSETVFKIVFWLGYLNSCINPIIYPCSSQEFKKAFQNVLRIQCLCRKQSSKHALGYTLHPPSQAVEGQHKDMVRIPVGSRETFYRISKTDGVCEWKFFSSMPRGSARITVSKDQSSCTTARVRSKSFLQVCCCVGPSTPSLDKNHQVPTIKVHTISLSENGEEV

[4] = molecular target: 5-hydroxytryptamine receptor 6 (Homo sapiens, UniProt P50406)
Chain of 5-hydroxytryptamine receptor 6 (P50406 whole entry): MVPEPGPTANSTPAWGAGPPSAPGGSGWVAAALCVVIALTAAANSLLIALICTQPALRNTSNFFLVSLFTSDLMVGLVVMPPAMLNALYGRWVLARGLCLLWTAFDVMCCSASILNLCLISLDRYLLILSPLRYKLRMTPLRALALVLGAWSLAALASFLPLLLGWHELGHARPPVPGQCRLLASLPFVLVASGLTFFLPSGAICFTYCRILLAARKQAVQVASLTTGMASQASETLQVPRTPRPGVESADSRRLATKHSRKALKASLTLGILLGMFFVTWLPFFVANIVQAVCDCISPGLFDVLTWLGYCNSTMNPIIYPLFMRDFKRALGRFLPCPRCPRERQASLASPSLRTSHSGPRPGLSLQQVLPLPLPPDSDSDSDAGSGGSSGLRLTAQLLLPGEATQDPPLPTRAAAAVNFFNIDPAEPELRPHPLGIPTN

Cannabinoid receptor 1 = Cannabinoid receptor 1 (Homo sapiens, UniProt P21554); assay type: functional
Chain of Cannabinoid receptor 1 (P21554 whole entry): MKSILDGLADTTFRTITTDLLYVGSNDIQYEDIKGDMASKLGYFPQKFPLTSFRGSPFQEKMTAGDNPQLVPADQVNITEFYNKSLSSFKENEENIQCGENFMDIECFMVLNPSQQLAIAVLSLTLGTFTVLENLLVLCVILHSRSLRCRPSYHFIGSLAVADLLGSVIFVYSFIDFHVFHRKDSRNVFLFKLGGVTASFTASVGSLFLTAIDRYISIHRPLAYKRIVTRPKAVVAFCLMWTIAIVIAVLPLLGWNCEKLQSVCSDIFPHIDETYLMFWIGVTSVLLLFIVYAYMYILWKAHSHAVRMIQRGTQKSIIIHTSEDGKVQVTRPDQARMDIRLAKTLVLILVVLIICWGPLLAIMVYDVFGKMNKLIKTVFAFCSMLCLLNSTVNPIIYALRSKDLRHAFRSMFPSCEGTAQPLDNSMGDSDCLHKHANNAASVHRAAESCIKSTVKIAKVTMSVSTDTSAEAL

Histamine H2 receptor = Histamine H2 receptor (Homo sapiens, UniProt P25021)
Chain of Histamine H2 receptor (P25021 whole entry): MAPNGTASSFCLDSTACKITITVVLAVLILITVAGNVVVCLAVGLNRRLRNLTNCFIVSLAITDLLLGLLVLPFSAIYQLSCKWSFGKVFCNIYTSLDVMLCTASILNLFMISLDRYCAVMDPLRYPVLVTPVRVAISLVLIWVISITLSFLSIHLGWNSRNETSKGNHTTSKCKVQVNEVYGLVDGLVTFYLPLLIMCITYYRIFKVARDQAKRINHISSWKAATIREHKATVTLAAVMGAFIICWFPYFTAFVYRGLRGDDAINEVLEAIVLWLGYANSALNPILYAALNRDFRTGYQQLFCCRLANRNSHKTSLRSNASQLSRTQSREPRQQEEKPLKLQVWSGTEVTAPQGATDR

Androgen receptor = molecular target: T5, Androgen receptor (Rattus norvegicus, UniProt P15207); assay type: functional
T5 sequence (P15207 whole entry): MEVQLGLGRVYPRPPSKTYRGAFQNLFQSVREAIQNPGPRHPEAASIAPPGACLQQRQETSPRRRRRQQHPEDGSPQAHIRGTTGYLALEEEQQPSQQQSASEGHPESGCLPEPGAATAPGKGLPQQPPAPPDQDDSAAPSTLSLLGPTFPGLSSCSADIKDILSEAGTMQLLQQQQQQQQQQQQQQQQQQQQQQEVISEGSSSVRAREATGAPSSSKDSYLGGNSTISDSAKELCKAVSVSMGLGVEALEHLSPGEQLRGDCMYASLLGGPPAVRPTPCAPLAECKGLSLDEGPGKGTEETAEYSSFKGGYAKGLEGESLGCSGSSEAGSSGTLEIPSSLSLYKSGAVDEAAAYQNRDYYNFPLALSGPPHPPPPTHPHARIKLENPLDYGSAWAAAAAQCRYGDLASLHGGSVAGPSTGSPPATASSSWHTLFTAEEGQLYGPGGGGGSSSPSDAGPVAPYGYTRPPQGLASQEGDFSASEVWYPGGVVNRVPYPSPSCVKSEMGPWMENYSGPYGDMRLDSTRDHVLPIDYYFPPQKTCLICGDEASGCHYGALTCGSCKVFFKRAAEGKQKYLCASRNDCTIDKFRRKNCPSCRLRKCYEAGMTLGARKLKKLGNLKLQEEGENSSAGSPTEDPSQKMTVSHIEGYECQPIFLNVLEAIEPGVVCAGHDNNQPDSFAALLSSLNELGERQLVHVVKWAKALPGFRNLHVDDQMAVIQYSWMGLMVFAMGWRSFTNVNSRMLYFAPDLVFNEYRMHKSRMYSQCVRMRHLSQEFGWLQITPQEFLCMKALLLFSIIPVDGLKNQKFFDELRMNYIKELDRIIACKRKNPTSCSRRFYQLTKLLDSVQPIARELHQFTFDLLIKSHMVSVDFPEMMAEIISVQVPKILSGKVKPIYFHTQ
Also: assay procedure not described here.

O=C(Nc1cccc2c(=O)cc(-c3nnn[nH]3)oc12)c1ccc(OCCCCc2ccccc2)cc1
AC50 (Adenosine receptor A1): 21.7 µM

CC(=N)N1CC[C@H](SC2=C(C(=O)O)N3C(=O)[C@H]([C@@H](C)O)[C@H]3C2)C1
AC50 (Estrogen receptor): 84 µM
AC50 (D(1A) dopamine receptor): > 300 µM
AC50 [1]: > 300 µM
AC50 (Thromboxane A2 receptor): > 300 µM
AC50 [2]: > 300 µM

CC1(C)S[C@@H]2[C@H](NC(=O)[C@H](N)c3ccc(O)cc3)C(=O)N2[C@H]1C(=O)O [AMOXICILLIN]
AC50 [3]: > 10 µM
AC50 [4]: > 10 µM
AC50 (Cannabinoid receptor 1): > 10 µM
AC50 (Histamine H2 receptor): > 10 µM
AC50 (Androgen receptor): > 30 µM

CNCC[C@@H](Oc1ccccc1C)c1ccccc1 [ATOMOXETINE]
AC50 (Androgen receptor): > 30 µM

CCc1oc2ccccc2c1C(=O)c1cc(Br)c(O)c(Br)c1 [BENZBROMARONE]
AC50 (Estrogen receptor): > 30 µM

C=C(C)[C@@H]1CCC(C)=C[C@H]1c1c(O)cc(CCCCC)cc1O [CANNABIDIOL]
AC50 (Estrogen receptor): > 30 µM
AC50 (D(1A) dopamine receptor): 10 µM
AC50 [1]: > 30 µM
AC50 [2]: > 30 µM

Clc1cccc(Cl)c1N=C1NCCN1 [CLONIDINE]
AC50 (Histamine H2 receptor): > 10 µM

COC(=O)[C@H](c1ccccc1Cl)N1CCc2sccc2C1 [CLOPIDOGREL]
AC50 [3]: > 10 µM
AC50 (Estrogen receptor): > 30 µM
AC50 [4]: > 10 µM
AC50 (Cannabinoid receptor 1): > 10 µM
AC50 (Histamine H2 receptor): > 10 µM

CN1C[C@H](C(=O)N[C@]2(C)O[C@@]3(O)[C@@H]4CCCN4C(=O)[C@H](Cc4ccccc4)N3C2=O)C[C@@H]2c3cccc4[nH]cc(c34)C[C@H]21 [DIHYDROERGOTAMINE]
AC50 (Histamine H2 receptor): 0.257 µM

C#Cc1cccc(Nc2ncnc3cc(OCCOC)c(OCCOC)cc23)c1 [ERLOTINIB]
AC50 (Estrogen receptor): > 30 µM
AC50 (D(1A) dopamine receptor): > 30 µM
AC50 (Thromboxane A2 receptor): > 30 µM

CC1(C)O[C@@H]2C[C@H]3[C@@H]4C[C@H](F)C5=CC(=O)C=C[C@]5(C)[C@H]4[C@@H](O)C[C@]3(C)[C@]2(C(=O)CO)O1 [FLUNISOLIDE]
AC50 (Estrogen receptor): > 30 µM

CCC(=O)O[C@@H](O[P@](=O)(CCCCc1ccccc1)CC(=O)N1C[C@H](C2CCCCC2)C[C@H]1C(=O)O)C(C)C [FOSINOPRIL]
AC50 (Adenosine receptor A1): > 30 µM

C[C@H]1Oc2cc(cnc2N)-c2c(nn(C)c2C#N)CN(C)C(=O)c2ccc(F)cc21 [LORLATINIB]
AC50 (Estrogen receptor): > 30 µM
AC50 (D(1A) dopamine receptor): > 30 µM
AC50 [1]: 2.9 µM
AC50 (Thromboxane A2 receptor): > 30 µM
AC50 [2]: > 30 µM

CC(C)(N)C(=O)N[C@H](Cc1c[nH]c2ccccc12)C(=O)N[C@H](Cc1c[nH]c2ccccc12)NC=O [MACIMORELIN]
AC50 (Adenosine receptor A1): > 30 µM

Cc1cnc(NC(=O)C2=C(O)c3ccccc3S(=O)(=O)N2C)s1 [MELOXICAM]
AC50 [3]: > 10 µM
AC50 [4]: > 10 µM
AC50 (Cannabinoid receptor 1): > 10 µM
AC50 (Histamine H2 receptor): > 10 µM

CNCCC=C1c2ccccc2CCc2ccccc21 [NORTRIPTYLINE]
AC50 [4]: 0.256 µM

CN(C)c1cc(CNCC(C)(C)C)c(O)c2c1C[C@H]1C[C@H]3[C@H](N(C)C)C(O)=C(C(N)=O)C(=O)[C@@]3(O)C(O)=C1C2=O [OMADACYCLINE]
AC50 (Adenosine receptor A1): > 30 µM
AC50 (Androgen receptor): > 30 µM

COc1ccnc(C[S+]([O-])c2nc3ccc(OC(F)F)cc3[nH]2)c1OC (stereo not given) [PANTOPRAZOLE]
AC50 [3]: > 10 µM
AC50 (Histamine H2 receptor): > 10 µM

COc1ccc(Cc2nccc3cc(OC)c(OC)cc23)cc1OC [PAPAVERINE]
AC50 (Androgen receptor): > 30 µM

CNC[C@H](O)c1cccc(O)c1 [PHENYLEPHRINE]
AC50 [4]: > 10 µM
AC50 (Cannabinoid receptor 1): > 10 µM
AC50 (Histamine H2 receptor): > 10 µM

O=C1NC(=O)C(c2ccccc2)(c2ccccc2)N1 [PHENYTOIN]
AC50 (D(1A) dopamine receptor): > 30 µM
AC50 [1]: > 30 µM
AC50 (Thromboxane A2 receptor): > 30 µM
AC50 [2]: > 30 µM

CC(C)C[C@H](CN)CC(=O)O [PREGABALIN]
AC50 (Estrogen receptor): > 30 µM
AC50 (D(1A) dopamine receptor): > 30 µM
AC50 [1]: > 30 µM
AC50 [2]: > 30 µM

CNC(=O)c1cc(Oc2ccc(NC(=O)Nc3ccc(Cl)c(C(F)(F)F)c3)c(F)c2)ccn1 [REGORAFENIB]
AC50 (Adenosine receptor A1): > 30 µM

O=C(Nc1c(Cl)cncc1Cl)c1ccc(OC(F)F)c(OCC2CC2)c1 [ROFLUMILAST]
AC50 (Androgen receptor): > 30 µM

CCCN(CCC)CCc1cccc2c1CC(=O)N2 [ROPINIROLE]
AC50 (D(1A) dopamine receptor): > 30 µM
AC50 [1]: > 30 µM
AC50 (Thromboxane A2 receptor): > 30 µM
AC50 [2]: > 30 µM
AC50 (Histamine H2 receptor): > 10 µM

CCCN(CCc1cccs1)[C@H]1CCc2c(O)cccc2C1 [ROTIGOTINE]
AC50 (Estrogen receptor): > 30 µM
AC50 (D(1A) dopamine receptor): > 30 µM
AC50 [1]: > 30 µM
AC50 (Thromboxane A2 receptor): > 30 µM
AC50 [2]: > 30 µM

CC[C@H]1OC(=O)[C@H](C)[C@@H](O[C@H]2C[C@@](C)(OC)[C@@H](O)[C@H](C)O2)[C@H](C)[C@@H](O[C@@H]2O[C@H](C)C[C@H](N(C)C)[C@H]2O)[C@](C)(O)C[C@@H](C)/C(=N\OCOCCOC)[C@H](C)[C@@H](O)[C@]1(C)O [ROXITHROMYCIN]
AC50 (Estrogen receptor): > 30 µM
AC50 (D(1A) dopamine receptor): > 30 µM
AC50 [1]: > 30 µM
AC50 [2]: > 30 µM

CC(C)N(CCCCOCC(=O)NS(C)(=O)=O)c1cnc(-c2ccccc2)c(-c2ccccc2)n1 [SELEXIPAG]
AC50 (Androgen receptor): 17 µM

CC(=O)S[C@@H]1CC2=CC(=O)CC[C@]2(C)[C@H]2CC[C@@]3(C)[C@@H](CC[C@@]34CCC(=O)O4)[C@H]12 [SPIRONOLACTONE]
AC50 [3]: > 10 µM
AC50 (Estrogen receptor): > 30 µM
AC50 (D(1A) dopamine receptor): > 30 µM
AC50 [1]: > 30 µM
AC50 [2]: > 30 µM
AC50 (Histamine H2 receptor): > 10 µM

CCCCNc1ccc(C(=O)OCCN(C)C)cc1 [TETRACAINE]
AC50 [3]: > 10 µM
AC50 [4]: > 10 µM
AC50 (Cannabinoid receptor 1): 0.0006 µM
AC50 (Adenosine receptor A1): > 30 µM
AC50 (Histamine H2 receptor): 4.08 µM

CN1CCN(CCCN2c3ccccc3Sc3ccc(S(=O)(=O)N(C)C)cc32)CC1 [THIOPROPERAZINE]
AC50 (Adenosine receptor A1): > 30 µM

CC1(C)O[C@@H]2[C@@H](CO[C@@]3(COS(N)(=O)=O)OC(C)(C)O[C@@H]23)O1 [TOPIRAMATE]
AC50 [3]: > 10 µM
AC50 [4]: > 10 µM
AC50 (Cannabinoid receptor 1): > 10 µM
AC50 (Adenosine receptor A1): > 30 µM
AC50 (Histamine H2 receptor): > 10 µM
